Source: publication PMC6018554, “2-[2-(4-(trifluoromethyl)phenylamino)thiazol-4-yl]acetic acid (Activator-3) is a potent activator of AMPK” (Scientific Reports, 2018)

Tested on: AMPK
Test: Cell based ELISA (pAMPK/pACC) in primary rat hepatocytes
Description: Primary rat hepatocytes were isolated by collagenase (type4, Invitrogen: Cat# 17104-019) digestion as described previously. Digested cells were suspended in DMEM supplemented with 10% FBS. Cells were seeded into 96-well plate (20,000 cells per well) pre-coated with collagen (2 mg/ml). As the cells were metabolically active, medium was changed after cells have attached and allowed to incubate overnight before performing cell based assay.
Approximately 40,000 cells per well were seeded into a 96 well plate (Biofil, cat# TCP011096) and incubated overnight at 37 °C and 5% CO2. After the seeded cells reached 80% confluence, cells were treated with Activator-3 with different working concentrations and 500 μM AICAR (Caymen chemicals, cat# 10010241-10) and incubated for 30 min to 2 h (depending upon the primary antibody used) at 37 °C and 5% CO2. Medium was aspirated and fixed with 4% of formaldehyde solution (diluted in 1X PBS) incubated for 1 h at 4 °C on shaker. Cells were washed with tween 20 (diluted in 1X PBS) on shaker for 5 minutes at room temperature (3 times). […] To quantify the bound primary antibody, cells were probed with a HRP conjugated secondary anti-rabbit antibody (1:2000 dilution, Bio-Rad; Cat# 170-6515) diluted in 1X PBST and incubated 2 h at RT on rocker. […] This reaction is stopped by adding 2 N H2SO4 and plate was immediately read at 450 nm using UV–Vis Spectrophotometer.

## O=C(O)Cc1csc(Nc2ccc(C(F)(F)F)cc2)n1 [Activator-3, 2-[2-(4-(trifluoromethyl)phenylamino)thiazol-4-yl]acetic acid]
  EC50: ~28 nM
